The test system of experiment [1] is K562. The experiment in a line: Cytotoxicity against human K562 cells expressing estrogen receptor after 48 hrs by MTT assay. It is filed as functional, cell-based. The settings on record: K562, 48 h.
For experiment [2], the system named is MCF7. The experiment in a line: Cytotoxicity against human MCF7 cells expressing estrogen receptor after 48 hrs by MTT assay. It is filed as functional, cell-based. The settings on record: MCF7, 48 h. (Tetrazolium dyes change colour on reduction, which living cells bring about.)
Experiment [3] concerns HT-29. Kind of experiment: Cytotoxicity against human HT-29 cells expressing estrogen receptor after 48 hrs by MTT assay. The following applies: HT-29, 48 h. It is filed as functional, cell-based.
Experiment [4] has as its system PC-3. Kind of experiment: Ratio of doxorubicin IC50 to compound IC50 for human PC3 cells expressing estrogen receptor after 48 hrs by MTT assay. It is filed as functional.
Experiment [5] deals with MRC5. Kind of experiment: Cytotoxicity against human MRC5 cells expressing estrogen receptor after 48 hrs by MTT assay. It is filed as cell-based. The settings on record: MRC5, 48 h.
Experiment [6] concerns MDA-MB-231. The experiment in a line: Cytotoxicity against estrogen receptor-deficient human MDA-MB-231 cells after 48 hrs by MTT assay. It is filed as functional, cell-based. The settings on record: MDA-MB-231, 48 h.
For experiment [7], the system named is PC-3. Kind of experiment: Cytotoxicity against human PC3 cells expressing estrogen receptor after 48 hrs by MTT assay. It is filed as functional, cell-based. The following applies: PC-3, 48 h.
Experiment [8] relates to HeLa. The experiment in a line: Cytotoxicity against human HeLa cells expressing estrogen receptor after 48 hrs by MTT assay. It is filed as functional, cell-based.

Data on 5 compounds can be found in ChEMBL document CHEMBL3217599, “Selective antitumour activity and ER molecular docking studies of newly synthesizedd-homo fused steroidal tetrazoles” (Medchemcomm, 2013).

In general, IC50 refers to the concentration at which inhibition is half-maximal. A high value points to a need for much substance. As to `COc1cccc2c1C(=O)c1c(O)c3c(c(O)c1C2=O)C[C@@](O)(C(=O)CO)C[C@@H]3O[C@H]1C[C@H](N)[C@H](O)[C@H](C)O1` [DOXORUBICIN], the IC50 in experiment [1] turned out to be 0.36 µM; in experiment [2], 0.75 µM; in experiment [3] it was 0.32 µM.

Consider `CC(=O)O[C@H]1CC[C@@]2(C)C(=CC[C@H]3[C@@H]4Cc5nnnn5[C@H](C)[C@@]4(C)CC[C@@H]32)C1`, for which the “Ratio IC50” value in experiment [4] was above 6. Besides, the concentration for half-maximal inhibition (IC50) in experiment [5] was above 100 µM; in experiment [1], 11.1 µM; in experiment [6], 89.6 µM; in experiment [7], 15.3 µM; in experiment [2], 25.4 µM; in experiment [3] it was above 100 µM. In experiment [8], this compound gave a half-inhibitory concentration (IC50) above 100 µM.

As for `C[C@]12CC[C@@H]3c4ccc(OCc5ccccc5)cc4CC[C@H]3[C@@H]1Cc1nnnn1C2`, the half-maximal inhibitory concentration (IC50) is above 100 µM in experiment [5]; above 100 µM in experiment [1]; above 100 µM in experiment [6]; 65.5 µM in experiment [7]; 12.6 µM in experiment [2]; above 100 µM in experiment [3]. Further, in experiment [8], the half-inhibitory concentration (IC50) is above 100 µM.

Turning to `C[C@H]1n2nnnc2C[C@H]2[C@@H]3CCc4cc(OCc5ccccc5)ccc4[C@H]3CC[C@@]21C`, the IC50 was above 100 µM in experiment [5]; above 100 µM in experiment [1]; above 100 µM in experiment [6]; above 100 µM in experiment [7]; 4.58 µM in experiment [2]; 18 µM in experiment [3]. The compound also came in with an IC50 in experiment [8] above 100 µM.

Take `CC(=O)O[C@H]1CC[C@@]2(C)C(=CC[C@H]3[C@@H]4Cc5nnnn5C[C@@]4(C)CC[C@@H]32)C1`: the IC50 was above 100 µM in experiment [5]; 45.2 µM in experiment [1]; above 100 µM in experiment [6]; 79 µM in experiment [7]; 56.2 µM in experiment [2]; above 100 µM in experiment [3]. In experiment [8], this compound came in with a 50% inhibitory concentration (IC50) above 100 µM.
